The text below walks through data of paper PMC6346587, “Glucose 6-phosphate dehydrogenase 6-phosphogluconolactonase: characterization of the Plasmodium vivax enzyme and inhibitor studies” (Malaria Journal, 2019).

Test [1] addresses T1, hG6PD (Homo sapiens, UniProt P11413).
T1 construct: made in house
Conditions: ML304; read-out: IC50 on human G6PD; cited from earlier work.

Test [2] has as its system P. falciparum Dd2. The arrangement: method as in PMID 24501782. Conditions: CQ resistant strain; cited from earlier work.
Test [3] deals with T2, PfGluPho (Plasmodium falciparum, UniProt Q8IKU0).
T2 construct: made in house
T2 sequence (Q8IKU0 1-910): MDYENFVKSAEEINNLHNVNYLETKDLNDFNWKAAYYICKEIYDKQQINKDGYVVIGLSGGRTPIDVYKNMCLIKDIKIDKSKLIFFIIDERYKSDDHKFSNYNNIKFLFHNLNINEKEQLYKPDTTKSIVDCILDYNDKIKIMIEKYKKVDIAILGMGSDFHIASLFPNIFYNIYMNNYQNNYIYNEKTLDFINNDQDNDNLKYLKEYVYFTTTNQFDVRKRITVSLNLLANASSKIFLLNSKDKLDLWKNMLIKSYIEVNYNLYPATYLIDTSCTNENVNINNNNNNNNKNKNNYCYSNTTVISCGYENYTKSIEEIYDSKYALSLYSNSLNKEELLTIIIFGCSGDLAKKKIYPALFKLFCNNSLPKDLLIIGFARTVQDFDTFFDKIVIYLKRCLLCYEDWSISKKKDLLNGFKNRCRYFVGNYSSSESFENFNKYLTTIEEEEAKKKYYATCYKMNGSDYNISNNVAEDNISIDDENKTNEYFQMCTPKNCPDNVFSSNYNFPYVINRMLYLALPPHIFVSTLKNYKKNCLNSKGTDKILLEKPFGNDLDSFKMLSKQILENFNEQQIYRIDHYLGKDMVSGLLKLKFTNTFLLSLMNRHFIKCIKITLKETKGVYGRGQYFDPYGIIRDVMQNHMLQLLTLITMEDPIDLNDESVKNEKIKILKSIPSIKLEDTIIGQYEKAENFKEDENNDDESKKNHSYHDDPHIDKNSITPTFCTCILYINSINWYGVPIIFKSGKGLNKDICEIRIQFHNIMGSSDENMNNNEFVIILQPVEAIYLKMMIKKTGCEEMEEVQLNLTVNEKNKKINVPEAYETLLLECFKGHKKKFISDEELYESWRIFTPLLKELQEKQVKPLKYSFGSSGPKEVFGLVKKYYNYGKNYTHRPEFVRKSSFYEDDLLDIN
The test is described as follows: PfGluPho G6PD activity inhibition assay. It is filed as biochemical. The procedure:
(§1) To identify potential inhibitors of PvG6PD, compounds with already known effects on PfGluPho (ellagic acid and derivatives, ML304) were tested. Additionally, several compound libraries of the Helmholtz Center for Infection Research, Brunswick, were screened against PfGluPho using the high-throughput-compatible assay systems described in Preuss et al.. […] Based on structure-activity relationship studies, a set of new potential G6PD inhibitors (Fig. 8) was then synthesized and assessed. First, the IC50 values of the compounds were determined, followed by mechanistic characterization of the mode of action. To test for selectivity of the compounds, the IC50 values of the compounds on PvG6PD, PfGluPho, and hG6PD were determined in parallel.
(§2) All measurements were performed in 96-well plates, half area (Greiner Bio-One, Frickenhausen, Germany) using a Tecan Infinite M200 plate reader (Maennedorf, Switzerland). The compounds were dissolved in 100% DMSO and afterwards diluted in assay buffer to the required concentrations. Different compound concentrations were added to a mixture of enzyme and NADP^+ in assay buffer. Concentrations of substrates differed depending on the enzyme; an overview is given in the Additional file 4. The reaction was started by adding G6P, and the increase of NADPH was monitored by measuring the absorbance at 340 nm. To increase the sensitivity of the assay, some measurements were reproduced, detecting the fluorescence of NADPH at ex340/em460. […] A negative control containing no compound was defined as 0% inhibition; a positive control lacking the substrate G6P was defined as 100% inhibition. For evaluations using GraphPad Prism and Microsoft Excel, only a linear increase in absorbance/fluorescence was considered. For the mechanistic characterization of the compounds, either NADP^+ or G6P were titrated at different compound concentrations around the IC50, while keeping the second substrate in saturation. The initial slope was plotted as Michaelis–Menten curves and Lineweaver–Burk plots using GraphPad Prism; KM values and Vmax were calculated with GraphPad Prism software.

For test [4], the target named is T2, PfGluPho. Conditions: ML304; read-out: IC50 on PfGluPho; cited from earlier work.
Test [5] deals with PvG6PD (Plasmodium vivax, UniProt A5K3M1). Nature of the test: PvG6PD enzyme inhibition assay (NADPH formation, absorbance 340 nm / fluorescence). It is filed as biochemical. Conditions: for IC50: read-out: IC50 on PvG6PD. The procedure:
The G6PD activity of PfGluPho variants was measured spectrophotometrically as described for the wt enzyme. Kinetic characterization of PvG6PD was performed using the same assay system at an Evolution 300 spectrophotometer (Thermo Scientific, Dreieich, Germany). In brief, the initial reduction of NADP^+ to NADPH by PvG6PD was monitored by measuring the absorbance at 340 nm. The 500 µL reaction mixture contained 200 µM NADP^+ and varying concentrations of PvG6PD in an assay buffer of 100 mM Tris–HCl, pH 8.0, 10 mM MgCl2, and 0.5 mM EDTA at 25 °C. The reaction was started by adding 800 µM G6P. The KM for NADP^+ was determined by titrating NADP^+ from 2 to 400 µM at 800 µM G6P; the KM for G6P was measured accordingly by titrating G6P from 2 to 1200 µM at 200 µM NADP^+. KM values were calculated using GraphPad Prism. Since the KM for G6P was considerably higher than the value measured for PfGluPho [14], a concentration of 800 µM G6P was defined as substrate saturation for PvG6PD.
as §1, §2

The test system of test [6] is P. falciparum 3D7. Nature of the test: [3H]-hypoxanthine incorporation assay on asexual blood stages. It is filed as cell-based, Plasmodium falciparum. Conditions: 72 h [3H]-hypoxanthine incorporation assay.

Where “and” joins values, the source holds several entries; their conditions need not be identical. Equal values may be shown once. Read-outs that look alike come from different tables or passages of the source.

Sequence of PvG6PD (A5K3M1 entry or part of it): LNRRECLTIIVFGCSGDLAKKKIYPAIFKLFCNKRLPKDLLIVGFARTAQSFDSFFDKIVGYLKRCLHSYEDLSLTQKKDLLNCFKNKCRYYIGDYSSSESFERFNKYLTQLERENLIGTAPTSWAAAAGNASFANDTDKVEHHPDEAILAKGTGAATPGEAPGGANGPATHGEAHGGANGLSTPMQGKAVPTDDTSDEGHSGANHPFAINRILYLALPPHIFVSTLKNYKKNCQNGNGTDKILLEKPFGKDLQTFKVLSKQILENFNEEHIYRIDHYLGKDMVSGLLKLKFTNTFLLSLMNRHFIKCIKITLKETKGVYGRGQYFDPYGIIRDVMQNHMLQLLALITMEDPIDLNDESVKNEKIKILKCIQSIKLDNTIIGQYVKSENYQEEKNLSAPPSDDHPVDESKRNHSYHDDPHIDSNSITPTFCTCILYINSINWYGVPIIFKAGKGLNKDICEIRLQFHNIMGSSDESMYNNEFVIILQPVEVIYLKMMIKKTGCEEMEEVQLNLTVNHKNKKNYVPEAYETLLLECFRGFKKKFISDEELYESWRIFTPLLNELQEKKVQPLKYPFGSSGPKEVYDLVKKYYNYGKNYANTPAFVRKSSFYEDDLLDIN
T1 sequence (P11413 whole entry): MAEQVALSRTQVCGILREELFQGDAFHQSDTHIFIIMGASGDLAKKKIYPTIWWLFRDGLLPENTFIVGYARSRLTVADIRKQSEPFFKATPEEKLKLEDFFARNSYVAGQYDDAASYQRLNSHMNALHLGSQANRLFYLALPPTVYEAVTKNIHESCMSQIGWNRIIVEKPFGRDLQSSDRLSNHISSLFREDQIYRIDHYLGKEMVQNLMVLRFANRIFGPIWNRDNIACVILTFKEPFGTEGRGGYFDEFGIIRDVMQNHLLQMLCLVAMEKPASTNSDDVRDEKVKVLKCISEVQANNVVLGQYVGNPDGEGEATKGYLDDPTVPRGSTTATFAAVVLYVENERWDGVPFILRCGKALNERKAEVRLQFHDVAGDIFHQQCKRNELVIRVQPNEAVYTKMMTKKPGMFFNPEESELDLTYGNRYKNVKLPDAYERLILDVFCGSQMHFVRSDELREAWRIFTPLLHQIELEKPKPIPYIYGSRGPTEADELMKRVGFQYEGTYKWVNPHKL

Take `CCN1CCC[C@@H]1CNC(=O)c1ccc2c(c1)NC(=O)c1cccc(C)c1S2` [ML304]: the IC50 in test [1] was 80 µM and > 80 µM; in test [4], 190 nM; in test [5] (substrate saturation (800 µM G6P, 200 µM NADP+)), 15.3 ± 0.9 µM; in test [5] (substrates close to KM (85 µM G6P, 15 µM NADP+)), 2.6 ± 0.8 µM. The “Active concentration on P. falciparum Dd2 in cell culture” value in test [2] was “about 5 µM”. The “Type of inhibition of PfGluPho towards G6P” value in test [3] (G6P titrated) is listed as “competes with G6P”. In test [3] (NADP+ titrated), the “Type of inhibition of PfGluPho towards NADP+” value was “non-competitive inhibitor”. The Ki in test [3] (competes with G6P, read-out: Ki on PfGluPho towards G6P) came out at 230 ± 160 nM; in test [5] (competitive towards G6P, read-out: Ki on PvG6PD towards G6P), 0.7 ± 0.3 µM; in test [5] (mixed type towards NADP+, read-out: Ki on PvG6PD towards NADP+), 16.3 ± 8.8 µM. The “Type of inhibition of PvG6PD towards G6P” value in test [5] (G6P titrated) is listed as “competitive inhibitor”. Moreover, the “Type of inhibition of PvG6PD towards NADP+” value in test [5] (NADP+ titrated) is given as “mixed type inhibitor”. A half-maximal effect in test [6] (EC50) was put at 471 ± 39.5 nM.

In general, IC50 refers to the concentration needed to halve the response being measured. One may read the Ki as the equilibrium dissociation constant of an inhibitor or competing ligand from its target. For orientation: EC50 means the concentration that produces a half-maximal response.
